The values below come from patent US9982011B2, “Legumain activated doxorubicin derivative as well as preparation method and application thereof” (priority 2012, dated 2018).

In data set [1] the test system is 4T1 cells. The data set is described as follows: Tumor growth inhibition in 4T1 breast cancer model in BALB/C mice. Format: in vivo. An excerpt:
Test purpose: to investigate the anti-tumor efficacy of Succinyl-AANL-DOX (SEQ ID NO: 2) and EMC-AANL-DOX (SEQ ID NO: 2) in a 4T1 breast cancer treatment model from BALB/C mice.
Treatment drug: Succinyl-AANL-DOX (SEQ ID NO: 2) and EMC-AANL-DOX (SEQ ID NO: 2) injections, and doxorubicin hydrochloride injection, diluted to corresponding concentrations by physiological saline when testing.
1) 4T1 cells were purchased from American type culture collection (ATCC) and identified according the specification provided by ATCC.
2) Production of tumor. 10^6 4T1 cells were subcutaneously injected to the back of the BALB/C mice. Mice were randomly grouped after the diameter of the tumor reached about 0.3 cm to 0.4 cm. Then treatment began.
Succinyl-AANL-DOX (SEQ ID NO: 2), Legubicin and EMC-AANL-DOX (SEQ ID NO: 2) were intraperitoneally injected. The dose of Succinyl-AANL-DOX (SEQ ID NO: 2), Legubicin and EMC-AANL-DOX (SEQ ID NO: 2) were all 28.16 μmol/kg. The dose of doxorubicin hydrochloride was 3.448 μmol/kg. The control group was administered with physiological saline. The drugs were administered twice weekly for three weeks.
4) Results and discussion.

A further data set has as its system A549. The data set is described as follows: Efficacy at different doses in human non-small cell lung cancer A549 model. The data set is classed as in vivo. The conditions noted are these: FIG. 6. The text has this:
In some examples and many other tumor treatment modes of the present invention, efficacies of Succinyl-AANL-DOX (SEQ ID NO: 2) and EMC-AANL-DOX (SEQ ID NO: 2) were also studied and compared according to the same method as described above. […] Thus, EMC-AANL-DOX (SEQ ID NO: 2) could satisfy our requirements on clinical development.

The next data set concerns the target serum albumin (Mus musculus, UniProt P07724). The conditions noted are these: blood taken 10 minutes after intravenous tail injection.
A further data set concerns the target Cathepsin B (Homo sapiens, UniProt P07858). The data set is described as follows: Cathepsin enzymatic activity with Z-Phe-Arg-NMec substrate. Format: biochemical. The settings on record: pH 6.0, FIG. 2. The text has this: Furthermore, Z-Phe-Arg-NMec was used as substrate to analyze the activity of cathepsin under pH 6.0. […] Cathepsin B was highly expressed in the lysosome of the tumor cell. It could degrade type I collagen, activate interstitial procollagenase and type IV procollagenase, and degrade type I, II, III and IV collagen fibers in the stroma, thus anticipating infiltration and metastasis of tumor.

The nature of data set [2]: Distribution of drug in tumor and heart tissues after intravenous injection. Format: in vivo. The conditions noted are these: for Distribution in tumor tissue sections (fluorescence microscope): 12 hours after intravenous injection of 10 μmol/kg, compared with Succinyl-AANL-DOX, FIG. 3; for Accumulation in the heart tissue / Accumulation in the tumor tissue: FIG. 4; for Accumulation in the tumor tissue: compared with doxorubicin and Succinyl-AANL-DOX. An excerpt: After intravenous injection of EMC-AANL-DOX (SEQ ID NO: 2), EMC-AANL-DOX (SEQ ID NO: 2) could accumulate at the tumor site due to the targeting property of the EMC group, as compared with Succinyl-AANL-DOX (SEQ ID NO: 2) and more EMC-AANL-DOX (SEQ ID NO: 2) were distributed in the tumor tissue. Since the drug itself could produce fluorescence, we detected distribution of Succinyl-AANL-DOX (SEQ ID NO: 2) and EMC-AANL-DOX (SEQ ID NO: 2) in the tumor tissue sections by fluorescence microscope 12 hours after intravenous injection of 10 μmol/kg Succinyl-AANL-DOX (SEQ ID NO: 2) and EMC-AANL-DOX (SEQ ID NO: 2). The nucleus was stained by 4′,6-diamidino-2-phenylindole (DAPI).

Data set [3] in a line: Metabolic half-life in mice blood.
The test system of the next data set is MDA-MB231 cells. The data set can be described thus: Efficacy in MDA-MB231 tumor model in nude mice. Format: in vivo. The conditions noted are these: i.p. twice weekly for three weeks, S1, S2 30 mg/kg, doxorubicin hydrochloride 4 mg/kg. The text has this:
Test purpose: to investigate the anti-tumor efficacy of S1 and S2 via mouse tumor treatment model.
Test drug: S1 and S2 injections, and doxorubicin hydrochloride injection, diluted to corresponding concentrations by physiological saline when testing.
1. Animal: nude mice of 6-8 weeks old, all female.
1) MDA-MB231 cells were purchased from American type culture collection (ATCC) and identified according the specification provided by ATCC.
2) Production of tumor. […] Mice were randomly grouped after the diameter of the tumor reached about 0.3 cm to 0.4 cm. Then treatment began.
According to the clinical application of S1 and S2, drugs were intraperitoneally injected. A dose of 30 mg/kg (<1/2 MTD) was used for the S1 treatment group, 30 mg/kg (<1/2 MTD) for the S2 treatment group, and 4 mg/kg (>1/2 MTD) for doxorubicin hydrochloride. The control group was administered with physiological saline. The drugs were administered twice weekly for three weeks.

Data set [4] deals with 4T1 cells. The data set can be described thus: Efficacy in 4T1 tumor metastasis (lung) model in BALB/C mice. Format: in vivo. The settings on record: lung, day 27; i.p. daily for 8 days; S1, S2 10 μmol/kg, doxorubicin hydrochloride 3 μmol/kg. An excerpt: Test purpose: to investigate the anti-tumor efficacy of S1 and S2 in a tumor metastasis treatment model from BALB/C mice.
Test drug: S1 and S2 injections, and doxorubicin hydrochloride injection, diluted to corresponding concentrations with physiological saline when testing.
1. Animal: BALB/C mice of 6-8 weeks old, all female.
1) 4T1 cells were purchased from American type culture collection (ATCC) and identified according the specification provided by ATCC. Cells were cultivated in DMEM culture medium containing 10% fetal bovine serum at 37° C. and 5% CO2. The cells were passaged for every three days and cells within the 15th passage were used.
2) Production of tumor metastasis. 10^6 […] were subcutaneously injected to the back of the BALB/C mice. Mice were randomly grouped after the tumor grew to about 1.5 cm. The subcutaneous tumor was removed by surgery and drug treatment began. Mice were killed after anesthesia on day 27. The whole lung was taken out and put into Bouin's solution for staining. The number of the tumor metastasized to lung was counted with anatomical microscope.
3) Course of treatment. According to the clinical application of S1 and S2, drugs were intraperitoneally injected. A dose of 10 μmol/kg (<1/10 MTD) was used for the S1 treatment group, 10 μmol/kg (<1/10 MTD) for the S2 treatment group, and 3 μmol/kg (>1/2 MTD) for doxorubicin hydrochloride. The control group was administered with physiological saline. The drugs were administered daily for 8 days.

Molecules are shown by their SMILES. Entries after “also recorded” stand apart in the source; their conditions may differ.

Sequence of serum albumin (P07724 25-608): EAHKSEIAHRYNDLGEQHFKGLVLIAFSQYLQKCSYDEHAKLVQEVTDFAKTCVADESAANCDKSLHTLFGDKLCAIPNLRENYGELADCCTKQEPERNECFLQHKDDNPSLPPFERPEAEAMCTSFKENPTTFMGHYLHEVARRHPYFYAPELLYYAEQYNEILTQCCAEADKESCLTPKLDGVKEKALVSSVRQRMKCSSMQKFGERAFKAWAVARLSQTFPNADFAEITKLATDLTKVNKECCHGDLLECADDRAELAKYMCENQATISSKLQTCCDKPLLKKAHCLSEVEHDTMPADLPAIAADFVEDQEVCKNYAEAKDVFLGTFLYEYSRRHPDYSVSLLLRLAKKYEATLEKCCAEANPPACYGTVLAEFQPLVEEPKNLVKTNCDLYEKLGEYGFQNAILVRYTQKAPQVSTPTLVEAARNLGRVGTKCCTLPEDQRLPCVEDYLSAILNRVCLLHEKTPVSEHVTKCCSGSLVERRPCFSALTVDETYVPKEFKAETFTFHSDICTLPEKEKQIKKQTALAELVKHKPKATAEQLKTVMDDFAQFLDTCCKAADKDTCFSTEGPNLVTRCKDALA
Description for serum albumin: Bloods were taken after 10 minutes and centrifuged to obtain serum. The proteins in the serum were precipitated by 70% ethanol.

In the case of `COc1cccc2c1C(=O)c1c(O)c3c(c(O)c1C2=O)CC(O)(C(=O)CO)CC3OC1CC(NC(=O)C(CC(C)C)NC(=O)C(CC(N)=O)NC(=O)C(C)NC(=O)C(C)NC(=O)CCCCCN2C(=O)C=CC2=O)C(O)C(C)O1` (stereo not drawn) [Example S1, EMC-AANL-Doxorubicin], the “Inhibitory effect on tumor growth (in words)” value in the data set with 4T1 cells [1] (28.16 μmol/kg i.p. twice weekly for three weeks, compared with Succinyl-AANL-DOX, Dox and BOC-AANL-DOX, FIG. 5) was “could significantly improve the inhibitory effect on tumor growth; also recorded: exhibits a superior inhibitory effect on tumor growth”. Also, the “Inhibitory effect on tumor growth relative to Succinyl-AANL-DOX” value in the data set on 4T1 cells [1] (4T1 breast cancer model, etc.) is recorded as 4-5 folds. For the same compound, the “Effect on tumor in A549 model (in words)” value with A549 was “could completely kill the tumor, with no recurrence of tumor in the later stage of the treatment”. Further, the “Binding to serum albumin / plasma protein in blood” value at serum albumin was “most of S1 could bind to serum albumin and thus precipitated; also recorded: most of S1 bound to the plasma protein”. Further, the “Inhibition of enzymatic activity of cathepsin” value on Cathepsin B was “could effectively inhibit the enzymatic activity of cathepsin”. Moreover, in data set [2], the “Distribution in tumor tissue sections (fluorescence microscope)” value is reported as “have the effect to accumulate the drug at tumor cell”, the “Accumulation in the heart tissue” value is given as “reduced accumulation in the heart” and the “Accumulation in the tumor tissue” value was “accumulation of S1 in the tumor site”. Also, in data set [2] (listed as EMC-AANL-DOX), the “Distribution in tumor tissue sections (fluorescence microscope)” value is “significantly more”, the “Accumulation in the heart tissue” value is “no accumulation in the heart tissue” and the “Accumulation in the tumor tissue” value is recorded as “accumulated in a higher concentration in the tumor tissue”. Moreover, in data set [3], the “Metabolic half-life in the mice blood” value is given as “above 74 hours”. Besides, in the data set on MDA-MB231 cells (20 days), the “Inhibitory rate of tumor, 20 days” value was found to be 25.8%. Further, in the data set with MDA-MB231 cells (20 days, nude mice), the “Size of tumor (mm^3), 20 days” value is recorded as 287.42 ± 30.52 mm^3. In addition, the “Inhibitory rate of tumor, 38 days” value with MDA-MB231 cells (38 days) is recorded as 68.5%. Moreover, the “Size of tumor (mm^3), 38 days” value in the data set with MDA-MB231 cells (38 days, nude mice) stood at 678.49 ± 37.7 mm^3. Further, in the data set with 4T1 cells [4], the “Inhibitory rate on metastasis” value worked out at 91.6% and the “Number of metastasized tumor” value was 12 ± 4.
